The values below come from publication PMC7269481, “ZN148 Is a Modular Synthetic Metallo-β-Lactamase Inhibitor That Reverses Carbapenem Resistance in Gram-Negative Pathogens In Vivo” (Antimicrobial Agents and Chemotherapy, 2020).

For assay [1], the system named is class A carbapenemase (KPC)-producing E. coli. In words: Carbapenem MIC, class A carbapenemase-producing E. coli. Format: cell-based. The note with it: carbapenem alone or with 50µM ZN148. As for the experimental part: (§1) MICs of carbapenems alone and in combination with inhibitors were determined by broth microdilution according to the Clinical and Laboratory Standards Institute (CLSI) guidelines ([48]) using either premade plates (TREK Diagnostic Systems/Thermo Fisher Scientific, East Grinstead, United Kingdom) with meropenem or in-house-prepared plates with meropenem, imipenem, and doripenem. ZN148 and other inhibitors were tested at a fixed concentration of 50 μM. Cation-adjusted Mueller-Hinton medium (TREK Diagnostic Systems/Thermo Fisher Scientific; Becton Dickinson, Franklin Lakes, NJ) were used as growth medium. The plates were incubated for 20 h at 37°C. ZN148, ZN222, ZN223, ZN228, and TPA were initially tested in combination with meropenem using two indicator strains: NDM-1-producing K. pneumoniae ([49], [50]) and VIM-2-producing P. aeruginosa ([51]). The activity of ZN148 were subsequently tested against two extended strain collections: (i) in combination with meropenem against MBL-producing Enterobacterales (n = 62), MBL-producing P. aeruginosa (n = 9) and MBL- and class D carbapenemase-coproducing Enterobacterales (n = 5) from the strain collection at the Norwegian National Advisory Unit on Detection of Antimicrobial Resistance and (ii) in combination with meropenem, imipenem, and doripenem against globally collected MBL-producing E. coli (n = 87), K. pneumoniae (n = 85), P. aeruginosa (n = 52), and A. baumannii (n = 6), MBL- and class A/D carbapenemase-coproducing E. coli (n = 11), K. pneumoniae (n = 15) and A. baumannii (n = 7) at IHMA Europe, Sàrl, Switzerland. E. coli ATCC 25922 and P. aeruginosa ATCC 27853 were used as quality control strains. The MBL inhibitors were also tested for intrinsic antibacterial activity against the strains.

For assay [2], the system named is K. pneumoniae co-producing MBLs and class A/D serine carbapenemases. In words: Carbapenem MIC, K. pneumoniae co-producing MBLs and class D carbapenemases. Format: cell-based. The note with it: carbapenem alone or with 50µM ZN148, one value per strain. As for the experimental part:
as §1

In assay [3] the test system is A. baumannii co-producing MBLs and class A/D serine carbapenemases. In words: Carbapenem MIC, A. baumannii co-producing NDM-1 and class D carbapenemases. It is filed as cell-based. The conditions noted are these: carbapenem alone or with 50µM ZN148, one value per strain. How it is done:
as §1

Assay [4] deals with class A carbapenemase (KPC)-producing E. cloacae. In words: Carbapenem MIC, class A carbapenemase-producing E. cloacae. The conditions noted are these: carbapenem alone or with 50µM ZN148. It is filed as cell-based. How it is done:
as §1

In assay [5] the test system is NDM-1-producing A. baumannii strains (n=6). Briefly: Carbapenem MIC, NDM-1-producing A. baumannii. The note with it: carbapenem alone or in combination with 50µM ZN148; one value per strain (n=6). Format: cell-based. How it is done: as §1
Assay [6] concerns E. coli co-producing MBLs and class A/D serine carbapenemases. Briefly: Carbapenem MIC, E. coli co-producing MBLs and class A/D serine carbapenemases. It is filed as cell-based. The conditions noted are these: carbapenem alone or with 50µM ZN148. As for the experimental part:
as §1

The subject of assay [7] is NDM-1-producing K. pneumoniae K66-45. In words: Meropenem MIC, broth microdilution, indicator strain K66-45. Format: cell-based. The conditions noted are these: meropenem alone or in combination with 50 μM of the labelled inhibitor. As for the experimental part: as §1
For assay [8] the following is noted: read-out: affinity toward Zn^2+; cited from earlier work.
The test system of a further assay is HepG2 cells. Briefly: In vitro toxicity, alamarBlue viability. Format: cell-based, human. The conditions noted are these: 24 h. As for the experimental part:
The human hepatoblastoma HepG2 cell line (HB-8065; ATCC, Manassas, VA) was cultured in DMEM-GlutaMAX (5.5 mM glucose; Thermo Fisher) supplemented with 10% fetal bovine serum (Sigma-Aldrich), streptomycin (100 μg/ml; Gibco/Thermo Fisher), and penicillin (100 U/ml; Gibco/Thermo Fisher) at 37°C in 5% CO2. For viability assays, cells were seeded in white 96-well Nunclon plates (Sigma-Aldrich) at a density of 20,000 cells/well and left overnight to adhere. ZN148 and TPA (Sigma-Aldrich, Darmstadt, Germany) dissolved in dimethyl sulfoxide (DMSO; (Sigma-Aldrich) were added to the white 96-well plates containing 20,000 HepG2 cells/well at concentrations ranging from 1 to 1 × 10^−3 mM (a DMSO concentration kept below 1%), followed by incubation for 24 h at 37°C in 5% CO2. After 24 h, alamarBlue cell viability reagent (Thermo Fisher, Carlsbad, CA) was added (10% final concentration), followed by incubation for 4 h at 37°C. The proportion of viable cells in each well was measured in a fluorescence plate reader (Clariostar; BMGlabtech, Germany) at excitation 550 nm/emission 603 nm ([56]). Data from eight replicates were fitted by nonlinear regression to determine IC50 values using Prism (GraphPad Software, Inc.).

In assay [9] the test system is VIM-2-producing P. aeruginosa K34-7. Briefly: Meropenem MIC, broth microdilution, indicator strain K34-7. Format: cell-based. The note with it: meropenem alone or in combination with 50 μM of the labelled inhibitor. How it is done: as §1
Assay [10] has as its target T1, VIM-2 (Escherichia coli, UniProt Q5U7L7).
T1 construct: made in house
Briefly: Time-dependent inactivation kinetics of purified VIM-2 (nitrocefin). It is filed as biochemical. As for the experimental part:
(§2) Protein expression and purification of NDM-1 and VIM-2 were performed as previously described ([36], [43], [57]). Stock solutions of purified NDM-1 and VIM-2 were prepared in 50 mM HEPES buffer (pH 7.5; Merck). Inhibition of NDM-1 and VIM-2 were determined for ZN148 and the analogues ZN222, ZN223, and ZN228 at different concentrations of inhibitor after preincubation times of 2, 8, 15, 25, and 32 min in 50 mM HEPES buffer (pH 7.5) supplemented with 1 μM ZnSO4 (Sigma-Aldrich) and bovine serum albumin (Sigma-Aldrich; final concentration, 2 μg/ml) at 25°C. Concentrations of 1 nM VIM-2 and 30 nM NDM-1 were used, and the reaction was initiated by the addition of 30 μM nitrocefin (Merck) for VIM-2 or 100 μM imipenem (Sigma-Aldrich) for NDM-1. The reaction was measured at 482 nm (VIM-2) or […] (NDM-1) in either standard 96-well plates (Thermo Fisher Scientific) for VIM-2 or UV-transparent 96-well plates (Corning, Kennebunk, ME) for NDM-1 at 25°C in a SpectraMax Plus plate reader (Molecular Devices). All of the enzyme and substrate concentrations indicated are the final concentrations in the assay. The enzyme activity as a percentage was calculated based on the initial velocity and compared to the control without inhibitor compound. All tests were performed at least in duplicates.
(§3) The observed rate constant (kobs) per inhibitor concentration was calculated from the slope of a semilog plot of the enzyme activity in percent versus preincubation time.
(§4) By fitting these values, the irreversible kinetic parameters maximum inactivation rate (kinact) and the inhibitor concentration that produces half-maximal rate of inactivation (KI) were obtained. Finally, the inhibitors were characterized by calculating kinact/KI. Where no saturation curve could be observed, KI and kinact were determined from the linear part of plot 1/kobs versus 1/[I].

The next assay has as its target T2, NDM-1 (Klebsiella pneumoniae, UniProt C7C422).
T2 construct: made in house
In words: Time-dependent inactivation kinetics of purified NDM-1 (imipenem). It is filed as biochemical. How it is done:
as §2, §3, §4

Assay [11] addresses T1, VIM-2. Format: biochemical. The conditions noted are these: VIM-2 preincubated with inhibitor. How it is done:
VIM-2 (0.4 μM) was preincubated on ice for 30 min with or without ZN148. Complete protein unfolding was archived in 50 mM HEPES buffer (pH 7.5) supplemented with 1 μM ZnSO4 (Sigma-Aldrich) and 8 M urea (Merck, Darmstadt, Germany). Refolding was achieved by a stepwise buffer exchange using centrifugal cutoff filters (10 kDa; Merck) and decreasing concentrations of urea ([…] in 50 mM HEPES buffer [pH 7.5]). VIM-2 was diluted to a final concentration of 1 nM, and the enzyme activity was measured by adding nitrocefin (Merck) to a final concentration of 50 μM.

Assay [12] concerns the target T1, VIM-2. Format: biochemical. The note with it: after incubation with inhibitor and its removal (PD-10); 100 μM ZnSO4. How it is done:
For reversibility of enzyme activity after incubation with ZN148, 3 ml of VIM-2 or NDM-1 was diluted with or without ZN148 in Chelex HEPES buffer (pH 7.5) and subsequently incubated for 1 h on ice. Then, 2.5 ml of each solution was loaded onto an equilibrated PD-10 column (GE Healthcare, Pittsburgh, PA), washed with 1 ml, and eluted with 1.5 ml of Chelex HEPES buffer (pH 7.5), respectively. Samples spiked and not spiked with inhibitor were diluted to a final enzyme concentration of 1 nM VIM-2 and 3 nM NDM-1. The initial reaction velocity was determined by adding nitrocefin (Merck) for VIM-2 or imipenem (Sigma-Aldrich) for NDM-1 at final concentrations of 50 and 100 μM, respectively. The initial enzyme reactions were recorded at 25°C. Inhibitor and enzyme alone were included as controls. All measurements were performed at least in duplicates. For enzyme restorability, pre- and postcolumn samples were supplemented with ZnSO4 (Sigma-Aldrich) to a final concentration of 100 μM and allowed to incubate for 5 min at 25°C. The initial enzyme velocity was then determined as described above.

[13] abbreviates: Escherichia coli, KPC-3 strain, read-out: MIC.
[14] abbreviates: Enterobacter cloacae, KPC-3 strain, read-out: MIC.
The mark [15] stands for this setting: KPC-2 strains, one value per strain.

Values joined by “and” are separate entries in the source; they are usually repeats but may differ in a detail not shown here. Equal entries are not always repeated. Where two headings read alike, the source gives them in different places.

T2 sequence (C7C422 29-270, looked up): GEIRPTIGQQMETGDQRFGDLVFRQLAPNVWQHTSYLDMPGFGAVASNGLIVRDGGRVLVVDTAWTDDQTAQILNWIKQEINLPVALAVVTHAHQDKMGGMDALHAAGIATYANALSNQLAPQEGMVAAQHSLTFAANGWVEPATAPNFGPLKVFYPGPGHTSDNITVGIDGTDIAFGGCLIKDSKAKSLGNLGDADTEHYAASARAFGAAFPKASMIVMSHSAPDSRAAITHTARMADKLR

In the case of `C[C@@H](O)[C@H]1C(=O)N2C(C(=O)O)=C(SCCN=CN)C[C@H]12` [IPM, imipenem], the MIC in [1] (setting [13]) is 8 µg/mL; in [2] (NDM-1 + OXA-232 strains), more than 64 µg/mL; in assay [2] (NDM-5 + OXA-181 strains), more than 64 µg/mL; in [3] (NDM-1 + OXA-23-like strains) it was more than 64 µg/mL; in assay [4] (Enterobacter cloacae, KPC-2 strains, one value per strain, read-out: MIC) it was 8 µg/mL; in assay [4] (setting [14]) it was 16 µg/mL. Also, the MIC in [4] (setting [15]) is 16 µg/mL; in assay [5] it was more than 64 µg/mL; in [6] (NDM-1 + GES-2 strain) it was 16 µg/mL; in assay [6] (NDM-5 + OXA-48 strain), 32 µg/mL.
Take `c1ccc(CN(Cc2ccccn2)Cc2ccccn2)nc1` [TPA, Tris-picolylamine]: the “meropenem MIC” value in assay [7] was 0.125 µg/mL; in assay [9], 1 µg/mL. In addition, the Kd in [8] was 0.01 nM. Moreover, in the assay on HepG2 cells, the IC50 is 9.8 µM and 9.75 µM.
In the case of `CN(C[C@H](O)[C@@H](O)[C@H](O)[C@H](O)CO)C(=O)c1ccc(CN(Cc2ccccc2)Cc2ccccn2)nc1` [ZN223], the “meropenem MIC” value in assay [7] and in [9] was 32 µg/mL throughout. Besides, the kinact was 0.000617 s⁻¹ on VIM-2 [10] and 0.000633 s⁻¹ on NDM-1. Also, the kinact/KI at VIM-2 [10] is 11.7 M⁻¹ s⁻¹; at NDM-1 it was 1 M⁻¹ s⁻¹.
Take `C[C@@H](O)[C@H]1C(=O)N2C(C(=O)O)=C(S[C@@H]3CN[C@H](CNS(N)(=O)=O)C3)[C@H](C)[C@H]12` [DOR, doripenem]: the MIC in assay [1] (Escherichia coli, KPC-2 strains, one value per strain, read-out: MIC) is 4 µg/mL; in assay [1] (setting [13]), 4 µg/mL; in [1] (setting [15]) it was 2 µg/mL; in [2] (NDM-1 + OXA-232 strains) it was more than 64 µg/mL; in [2] (NDM-5 + OXA-181 strains) it was more than 64 µg/mL; in [3] (NDM-1 + OXA-23-like strains) it was more than 64 µg/mL. Further, the MIC in [3] (NDM-1 + OXA-24-like, OXA-58-like strains) is more than 64 µg/mL; in [4] (setting [14]), 2 µg/mL; in [5], more than 64 µg/mL; in assay [6] (NDM-1 + GES-2 strain), 64 µg/mL; in [6] (NDM-5 + OXA-48 strain) it was more than 64 µg/mL; in [6] (NDM-5 + OXA-181 strains, one value per strain), 64 µg/mL. Moreover, in [6] (NDM-5 + OXA-232 strains, one value per strain), the minimum inhibitory concentration (MIC) is more than 64 µg/mL.
Regarding `CN(C[C@H](O)[C@@H](O)[C@H](O)[C@H](O)CO)C(=O)c1ccc(CN(Cc2ccccc2)Cc2ccccc2)nc1` [ZN222], the “meropenem MIC” value in [7] and in assay [9] was 32 µg/mL each time.
As to `O=C(O)CN(CCN(CC(=O)O)CC(=O)O)CC(=O)O` [EDTA], on VIM-2 [11], the “enzyme activity after unfolding and stepwise refolding, of control activity” value was more than 80%. On VIM-2 [12], the “MBL activity restored by addition of exogenous zinc, compared to untreated control” value is “complete or nearly complete (∼80%) restoration of activity”.
For the compound `CN(C[C@H](O)[C@@H](O)[C@H](O)[C@H](O)CO)C(=O)c1ccc(CN(Cc2ccccn2)Cc2ccccn2)cc1` [ZN228], the “meropenem MIC” value in assay [7] and in assay [9] was 32 µg/mL throughout. Besides, the kinact at VIM-2 [10] is 0.000567 s⁻¹; on NDM-1, 0.00127 s⁻¹. The figures for the kinact/KI on VIM-2 [10] and at NDM-1 were 23.3 M⁻¹ s⁻¹ and 1.83 M⁻¹ s⁻¹, respectively.
